# Reference: ChEMBL document CHEMBL1240301, “Assignment of protein function in the postgenomic era” (Nat Chem Biol, 2005)
# Assays:
# [1] = Inhibition of v-Src kinase I338G mutant
# [2] = target: Cyclin-dependent kinase 2 (Homo sapiens, UniProt P24941); assay: Inhibition of wild type CDK2
# [3] = target: Calcium/calmodulin-dependent protein kinase type II subunit alpha (Homo sapiens, UniProt Q9UQM7, F89G); assay: Inhibition of CAMK2 F89G mutant
# [4] = target: Cyclin-dependent kinase 2 (Homo sapiens, UniProt P24941, F80G); assay: Inhibition of CDK2 F80G mutant
# [5] = Inhibition of c-Fyn T339G mutant
# [6] = Inhibition of wild-type v-Src
# [7] = Inhibition of wild type CAMK2
# [8] = target: Tyrosine-protein kinase ABL1 (Homo sapiens, UniProt P00519); assay: Inhibition of wild type c-Abl
# [9] = target: Tyrosine-protein kinase Fyn (Homo sapiens, UniProt P06241); assay: Inhibition of wild type c-Fyn
# [10] = target: Tyrosine-protein kinase ABL1 (Homo sapiens, UniProt P00519, T315A); assay: Inhibition of c-Abl T315A mutant
# Sequence of Tyrosine-protein kinase ABL1 (Homo sapiens, UniProt P00519, T315A) (P00519 whole entry T315A): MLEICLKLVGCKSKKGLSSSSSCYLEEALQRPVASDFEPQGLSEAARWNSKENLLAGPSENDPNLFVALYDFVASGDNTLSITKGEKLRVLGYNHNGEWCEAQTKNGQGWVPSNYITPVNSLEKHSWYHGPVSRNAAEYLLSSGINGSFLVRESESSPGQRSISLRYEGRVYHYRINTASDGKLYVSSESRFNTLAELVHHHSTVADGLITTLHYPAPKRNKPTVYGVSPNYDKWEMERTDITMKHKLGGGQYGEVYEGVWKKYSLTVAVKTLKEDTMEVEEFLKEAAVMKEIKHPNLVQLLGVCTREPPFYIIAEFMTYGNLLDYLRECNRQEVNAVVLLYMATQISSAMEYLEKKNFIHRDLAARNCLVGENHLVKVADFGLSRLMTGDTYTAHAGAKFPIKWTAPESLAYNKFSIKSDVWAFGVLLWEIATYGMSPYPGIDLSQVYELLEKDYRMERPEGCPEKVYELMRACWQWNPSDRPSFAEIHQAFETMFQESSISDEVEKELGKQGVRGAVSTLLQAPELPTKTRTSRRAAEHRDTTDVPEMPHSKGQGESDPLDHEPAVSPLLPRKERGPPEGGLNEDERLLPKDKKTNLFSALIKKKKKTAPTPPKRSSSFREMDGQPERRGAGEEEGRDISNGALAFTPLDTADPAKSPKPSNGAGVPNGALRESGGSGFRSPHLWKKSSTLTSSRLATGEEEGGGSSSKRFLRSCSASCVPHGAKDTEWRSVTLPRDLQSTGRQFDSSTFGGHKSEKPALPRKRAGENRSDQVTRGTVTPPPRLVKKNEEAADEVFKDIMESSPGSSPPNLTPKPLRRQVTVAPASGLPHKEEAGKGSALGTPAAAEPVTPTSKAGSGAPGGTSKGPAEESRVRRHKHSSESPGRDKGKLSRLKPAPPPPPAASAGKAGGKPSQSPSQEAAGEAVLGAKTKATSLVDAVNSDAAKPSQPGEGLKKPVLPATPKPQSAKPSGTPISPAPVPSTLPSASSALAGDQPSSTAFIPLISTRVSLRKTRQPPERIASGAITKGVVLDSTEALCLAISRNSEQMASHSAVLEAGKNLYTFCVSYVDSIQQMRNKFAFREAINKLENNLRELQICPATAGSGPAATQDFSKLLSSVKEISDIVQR
# Sequence of Calcium/calmodulin-dependent protein kinase type II subunit alpha (Q9UQM7 whole entry F89G): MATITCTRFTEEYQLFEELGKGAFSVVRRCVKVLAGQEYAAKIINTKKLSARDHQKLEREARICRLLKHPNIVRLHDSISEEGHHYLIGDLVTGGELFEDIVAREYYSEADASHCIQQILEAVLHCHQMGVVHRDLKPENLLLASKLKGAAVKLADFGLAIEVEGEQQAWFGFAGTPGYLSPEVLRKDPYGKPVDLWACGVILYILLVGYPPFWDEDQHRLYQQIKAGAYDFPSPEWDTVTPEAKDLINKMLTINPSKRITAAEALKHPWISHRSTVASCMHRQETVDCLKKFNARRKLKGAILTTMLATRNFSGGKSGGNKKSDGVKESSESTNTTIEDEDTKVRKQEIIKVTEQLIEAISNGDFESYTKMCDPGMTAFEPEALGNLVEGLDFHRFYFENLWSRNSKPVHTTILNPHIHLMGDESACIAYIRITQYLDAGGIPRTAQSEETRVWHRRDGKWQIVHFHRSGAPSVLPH
# Sequence of Tyrosine-protein kinase ABL1 (Homo sapiens, UniProt P00519) (P00519 whole entry): as the sequence (P00519 whole entry T315A) above, with A315T counted along it
# Sequence of Tyrosine-protein kinase Fyn (P06241 whole entry): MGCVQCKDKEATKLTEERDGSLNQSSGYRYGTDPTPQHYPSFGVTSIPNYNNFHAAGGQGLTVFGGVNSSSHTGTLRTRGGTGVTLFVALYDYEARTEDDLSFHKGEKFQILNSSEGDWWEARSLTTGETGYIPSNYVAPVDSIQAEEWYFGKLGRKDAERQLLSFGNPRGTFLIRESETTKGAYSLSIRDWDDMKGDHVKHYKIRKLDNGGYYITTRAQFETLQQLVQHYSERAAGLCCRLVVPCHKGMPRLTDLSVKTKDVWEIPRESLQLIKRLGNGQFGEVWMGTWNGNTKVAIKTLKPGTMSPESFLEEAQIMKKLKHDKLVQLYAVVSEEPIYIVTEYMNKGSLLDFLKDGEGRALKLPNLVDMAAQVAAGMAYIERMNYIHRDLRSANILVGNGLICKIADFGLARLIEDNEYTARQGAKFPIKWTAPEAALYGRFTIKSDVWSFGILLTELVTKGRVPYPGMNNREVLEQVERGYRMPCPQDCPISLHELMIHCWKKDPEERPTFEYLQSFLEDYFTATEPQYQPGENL
SMILES,IC50 [1] [µM],IC50 [2] [µM],IC50 [3] [µM],IC50 [4] [µM],IC50 [5] [µM],IC50 [6] [µM],IC50 [7] [µM],IC50 [8] [µM],IC50 [9] [µM],IC50 [10] [µM]
CC(C)(C)n1nc(-c2cccc3ccccc23)c2c(N)ncnc21,0.0015,18,0.097,0.015,0.0065,1,22,–,–,–
CC(C)(C)n1nc(Cc2cccc3ccccc23)c2c(N)ncnc21,0.0043,29,–,–,0.0032,28,24,3.4,1,0.12
